# From EP3822285A1, “VARIANT NISIN PEPTIDES” (University College Cork-National University of Ireland, Cork, priority 2019, dated 2021)
# Where “and” joins values, the source holds several entries; their conditions need not be identical. Equal entries are not always repeated.
# What was measured:
# [1] = positive charge at position 17 replacing Methionine; Wiedemann et al., 2001; cited from earlier work
# S. aureus RF122 [2] = assay: Deferred antagonism assay; format: cell-based; conditions: producing strain
# Procedure: (§1) Mutagenesis of the nisA gene was carried out as described previously (Field et al., 2008). Briefly, saturation mutagenesis was carried out using pDF05 (pCI372-nisA) as template and using oligonucleotides containing an NNK codon in place of each native codon. PCR amplification was performed in a 50 µl reaction containing approximately 0.5 ng of target DNA (pDF05), 1 unit Phusion High-Fidelity DNA polymerase (Finnzymes, Finland), 1 mM dNTPs and 500 ng each of the appropriate forward and reverse oligonucleotide. The reaction was pre-heated at 98°C for 2 min, and then incubated for 29 cycles at 98°C for 30 s, 55°C for 15 s and 72°C for 3 min 30 s, and then finished by incubating at 72°C for 3 min 30 s. Amplified products were treated with Dpn1 (Stratagene) for 60 min at 37°C to digest template DNA and purified using the QIAquick PCR purification kit. Following transformation of E. coli Top 10 cells plasmid DNA was isolated and sequenced using primers pCI372FOR (5' […] 3') and pCI372REV (5' […] 3') to verify that mutagenesis had taken place. Approximately 150 transformants were chosen at random for each position and inoculated into 96-well plates containing GM17 chloramphenicol, incubated overnight and stored at -20°C after addition of 80% glycerol. Deferred antagonism assays were performed by replicating strains on GM17 agar plates and allowing them to grow overnight before overlaying with BHI agar (0.75% w/v agar) seeded with the appropriate indicator strain.
# (§2) Previously, site-saturation mutagenesis-based strategies were used to generate strains producing bioengineered nisin derivatives in which all residues not involved in lanthionine ring formation (i.e. I1, T2, 14, S5, L6, P9, G10, K12, G14, A15, L16, M17, G18, N20, M21, K22, A24, H27, S29 130, H31, V32, S33 and K34) were each randomised to potentially all other natural amino acids, or whereby all three residues of the hinge-region (NMK) were randomised simultaneously (Rouse et al., 2012, Healy et al., 2013, Field et al., 2008). […] From this screen 76 variants of interest from the first round of screening were incorporated into a "mini-bank" for subsequent further analysis. The number of indicator strains was increased from five to thirteen to include S. uberis 43382, S. uberis DPC5344, S. dysgalactiae ATCC43078, L. lactis 303, L. cremoris KH, Lactobacillus bulgaricus NCDO2489, Lb. helveticus 2079 and Lb. acidophilus ATCC4356 (Table 1). Following this second round of screening, 6 variants of interest were deemed worthy of closer inspection. DNA sequencing of the mutated nisin gene as well as mass spectrometric analysis of the peptide produced by each strain established that these corresponded to nisin M17Q (methionine at position 17 altered to glutamine), nisin T2L (threonine 2 leucine) nisin HTK, VGA, VGV or VGT (where the hinge residues Asn-Met-Lys have been altered to His-Thr-Lys, Val-Gly-Ala, Val-Gly-Val or Val-Gly-Thr respectively). […] As a result, these derivatives were eliminated from this study, but will be the subject of further investigation as potential anti-mastitis antimicrobials. […] In the case of the derivatives nisin T2L and nisin HTK, the activity appeared reduced and equivalent to nisin A respectively (Figure 1), while improved activity was observed by both derivatives against S. agalactiae ATCC13813 and S. aureus RF122 (Table 2). On this basis, the nisin derivatives M17Q, T2L and HTK were selected for purification and specific activity assays. Purified peptides were subjected to Mass Spectrometry to confirm the correct mass in each case. In the case of T2L and HTK derivatives, the threonine remained in the unmodified form (data not shown).
# L. lactis HP [3] = assay: Deferred antagonism assay; format: cell-based; conditions: producing strain
# Procedure: as §1, §2
# L. lactis MG1363 [4] = assay: Deferred antagonism assay; format: cell-based; conditions: producing strain
# Procedure: as §1, §2
# S. agalactiae ATCC13813 = assay: Deferred antagonism assay; format: cell-based; conditions: producing strain
# Procedure: as §1, §2
# S. aureus strains = assay: Minimum inhibitory concentration assay, panel of S. aureus strains; format: cell-based; conditions: panel of 12 S. aureus isolates; compared to nisin A
# Procedure: (§3) Minimum inhibitory concentration determinations were carried out in triplicate in 96 well microtitre plates. 96 well microtitre plates were pre-treated with bovine serum albumin (BSA) prior to addition of the peptides. Briefly, to each well of the microtitre plate 200 µL of phosphate buffered saline (PBS) containing 1% (w/v) bovine serum albumin (PBS/BSA) was added and incubated at 37°C for 30 min. The wells were washed with 200 µL PBS and allowed to dry. Target strains were grown overnight in the appropriate conditions and medium, subcultured into fresh broth and allowed to grow to an OD600 of ∼0.5, diluted to a final concentration of 10^5 cfu ml^-1 in a volume of 0.2 ml. The lyophilised peptides were resuspended in the appropriate media to a stock concentration of 30 µM. Wild type nisin and nisin mutant peptides were adjusted to a 7.5 or 5.0 µM or 500 nM starting concentration and 2-fold serial dilutions of each peptide were made in 96 well plates for a total of 12 dilutions.
# (§4) To confirm that the observed enhanced activity of the nisin variants was due to increased specific activity, the activity of purified peptides were assessed using classical broth-based minimum inhibitory concentration (MIC) determination assays. […] Also included were the lactic acid bacteria targets L. lactis MG1363, L. lactis spp. lactis HP, B. longum UCC44b and Lb acidophilus ATCC 4356.
# S. aureus 20777 = format: cell-based
# Procedure: as §3, §4
# B. longum UCC 44b = format: cell-based
# Procedure: as §3, §4
# S. aureus RF122 [5] = format: cell-based
# Procedure: as §3, §4
# S. aureus 54072 = format: cell-based
# Procedure: as §3, §4
# [6] = tested on: Lb. acidophilus ATCC 4356; format: cell-based
# Procedure: as §3, §4
# S. aureus NCDO1499 = format: cell-based
# Procedure: as §3, §4
# L. lactis MG1363 [7] = format: cell-based
# Procedure: as §3, §4
# L. lactis HP [8] = assay: Minimum inhibitory concentration assay; format: cell-based
# Procedure: as §3, §4
# S. aureus 513 = assay: Minimum inhibitory concentration assay; format: cell-based; conditions: purified peptide
# Procedure: as §3, §4
# S. aureus DPC 5247 = assay: Minimum inhibitory concentration assay; format: cell-based; conditions: purified peptide
# Procedure: as §3, §4
# S. aureus ST528(MRSA) = assay: Minimum inhibitory concentration assay; format: cell-based; conditions: S. aureus ST528(MRSA); purified peptide
# Procedure: as §3, §4
# S. aureus 5971 = assay: Minimum inhibitory concentration assay; format: cell-based; conditions: purified peptide
# Procedure: as §3, §4
# S. aureus DPC 5245 = assay: Minimum inhibitory concentration assay; format: cell-based; conditions: purified peptide
# Procedure: as §3, §4
# S. aureus 272 = assay: Minimum inhibitory concentration assay; format: cell-based; conditions: purified peptide
# Procedure: as §3, §4
# S. aureus ST534(MRSA) = assay: Minimum inhibitory concentration assay; format: cell-based; conditions: S. aureus ST534(MRSA); purified peptide
# Procedure: as §3, §4
# S. aureus DPC 5243 = assay: Minimum inhibitory concentration assay; format: cell-based; conditions: purified peptide
# Procedure: as §3, §4
molecule,measurement,setting,value
Nisin Z M17K,antimicrobial activity reduced to,[1],50%
"C=C(NC(=O)[C@@H](NC(=O)[C@H](Cc1c[nH]cn1)NC(=O)[C@@H](NC(=O)[C@H](CO)NC(=O)[C@@H]1CS[C@@H](C)[C@H]2NC(=O)[C@H](C)NC(=O)[C@H](NC(=O)[C@H](CCCCN)NC(=O)[C@@H](NC(=O)[C@H](Cc3c[nH]cn3)NC(=O)[C@@H]3CS[C@@H](C)[C@@H](NC(=O)[C@H](CCCCN)NC(=O)[C@@H]4CS[C@@H](C)[C@@H](NC(=O)[C@@H]5CSC[C@@H](NC(=O)/C(=C/C)NC(=O)[C@@H](N)[C@@H](C)CC)C(=O)N[C@@H]([C@@H](C)CC)C(=O)NC(=C)C(=O)N[C@@H](CC(C)C)C(=O)N5)C(=O)N5CCC[C@H]5C(=O)NCC(=O)N4)C(=O)NCC(=O)N[C@@H](C)C(=O)N[C@@H](CC(C)C)C(=O)N[C@@H](CCSC)C(=O)NCC(=O)N3)[C@@H](C)O)[C@H](C)SC[C@H](NC2=O)C(=O)N[C@@H](Cc2c[nH]cn2)C(=O)N1)[C@@H](C)CC)C(C)C)C(=O)N[C@@H](CCCCN)C(=O)O [HTK, nisin HTK]",zone of inhibition (area of the zone of inhibition minus the area of the spot),S. aureus RF122 [2],106.66 ± 3.00 mm2
same,zone of inhibition (area of the zone of inhibition minus the area of the spot),L. lactis HP [3],230.58 ± 6.71 mm2
same,zone of inhibition (area of the zone of inhibition minus the area of the spot),L. lactis MG1363 [4],137.70 ± 5.40 mm2
same,zone of inhibition (area of the zone of inhibition minus the area of the spot),S. agalactiae ATCC13813,148.14 ± 3.66 mm2
same,number of S. aureus strains with enhanced specific activity,S. aureus strains,6
same,MIC,S. aureus 20777,0.125 µg/mL
same,MIC,B. longum UCC 44b,0.24 µg/mL
same,fold decreased activity compared to wild type peptide,B. longum UCC 44b,4 fold
same,MIC,S. aureus RF122 [5],1 µg/mL
same,MIC,S. aureus 54072,0.25 µg/mL
same,MIC,[6],0.12 µg/mL
same,fold reduction in specific activity compared to wild type nisin A,[6],4 fold
same,Specific activity (MIC),[6]; purified peptide,0.12 Mg/L and 0.044 µM
same,MIC,S. aureus NCDO1499,0.03 µg/mL
same,MIC,L. lactis MG1363 [7],0.4 µg/mL
same,fold reduction in potency,L. lactis HP [8]; compared to wild-type nisin A,2 fold
same,Specific activity (MIC),L. lactis HP [8]; purified peptide,0.4 Mg/L and 0.125 µM
same,Specific activity (MIC),S. aureus 513,6 Mg/L and 1.875 µM
same,Specific activity (MIC),S. aureus DPC 5247,1 Mg/L and 0.312 µM
same,Specific activity (MIC),S. aureus ST528(MRSA),0.25 Mg/L and 0.078 µM
same,Specific activity (MIC),S. aureus 5971,12.57 Mg/L and 3.75 µM
same,Specific activity (MIC),S. aureus DPC 5245,1 Mg/L and 0.312 µM
same,Specific activity (MIC),S. aureus 272,6 Mg/L and 1.875 µM
same,Specific activity (MIC),S. aureus ST534(MRSA),1 Mg/L and 0.312 µM
same,Specific activity (MIC),S. aureus DPC 5243,1 Mg/L and 0.312 µM
